Measured values from patent publication US4304781A, “Treatment of ulcers and hypertension” (John Wyeth & Brother Limited, priority 1978, dated 1981).

What was measured:
Format in all cases: in vivo
[1] = test system: hypersecretion; assay: Anti-secretory activity test (Shay et al); set-up: key to Anti-secretory, % change in Vol.: NS: Not Significant; conditions: for change in vivo at 30 mg/kg / change in vivo at 10 mg/kg: read-out: Anti-secretory, % change in Vol.; for change in vivo at 30 mg/kg / Anti-secretory, % change in Vol.: 30 mg/kg
Protocol: (§1) Anti-ulcer activity was determined by the stress-induced erosion test of Senay & Levine, Proc. Soc. Exp. Biol. Med., 124, 1221-1223 (1967) and anti-secretory activity by the test of H. Shay, D. Sun and H. Greenstin, Gastroenterology, 1954, 26, 903-913 as exemplified by Beattie et al J. Med. Chem., 20, 714 (1977). […] However, some compounds show activity in tests for anti-hypertensive activity.

[2] = test system: stress-induced erosion; assay: Stress-induced erosion test (Senay & Levine), anti-ulcer activity
Protocol: as §1

[3] = test system: male spontaneously hypertensive rats; assay: Antihypertensive activity, Procedure A: systolic pressure of spontaneously hypertensive rats
Protocol: Systolic pressure of male spontaneously hypertensive rats is measured by an indirect technique using the Decker Caudal Plethysmograph or other appropriate sensor. Groups usually consist of 4 rats. Drugs are usually administered orally. Pressures are usually read prior to drug administration and at 1.5, 4 and 24 hours thereafter. This schedule may be altered depending upon the behaviour of the drug.

[4] = test system: Female rats rendered hypertensive; assay: Antihypertensive activity, Procedure B: deoxycorticosterone acetate hypertensive rats (unilateral nephrectomy); conditions: 50 mg/kg orally
Protocol: Female rats are rendered hypertensive by unilateral nephrectomy and the s.c. implantation of a pellet containing 30 mg of deoxycorticosterone acetate. The drinking water is replaced by normal saline ad lib for the first four weeks following preparation. Blood pressures stabilise at a hypertensive level after 6 weeks. Systolic pressure is measured indirectly before dosing with a test compound using an E and M pneumatic pulse transducer and a Devices MX2 recorder. Groups of 4 rats are dosed orally with suspensions or solutions of the test compound in 0.5% hydroxypropyl-methyl-cellulose 0.9% saline vehicle. Blood pressures are recorded again at 2, 6 and 24 hours and the results, expressed as a percentage of the pre-dose values compared with those of a similar group of rats receiving vehicle alone.

Compound	change in vivo at 30 mg/kg [1]	inhibition in vivo at 100 mg/kg [2]	Antihypertensive activity (Procedure A) ([3]; 75 mg/kg orally)	change in vivo at 10 mg/kg [1]	inhibition in vivo at 30 mg/kg [2]	Antihypertensive activity (Procedure A) ([3]; 50 mg/kg orally)	Anti-secretory, % change in Vol. [1]	Antihypertensive activity (Procedure B) [4]	inhibition in vivo at 10 mg/kg ([2]; 10 mg/kg)
C[n+]1ccccc1SCc1ccc(Cl)c(Cl)c1 [Example 4, 2-(3,4-Dichlorobenzylthio)-1-methylpyridinium chloride]	-45%	67%	showed activity	–	–	–	–	–	–
C[n+]1ccccc1SCCc1ccccc1 [Example 2, 1-Methyl-2-(2-phenylethylthio) pyridinium bromide]	-56%	67%	showed activity	-20%	83%	–	–	–	–
C[n+]1ccccc1SCc1cccc(Br)c1 [Example 17, 2-(3-Bromobenzylthio)-1-methylpyridinium bromide]	-52%	64%	–	–	–	inactive	–	–	–
C[n+]1ccccc1SCC1CCCCC1 [Example 12, 2-(Cyclohexylmethylthio)-1-methylpyridinium bromide]	–	87%	–	–	67%	–	NS	inactive	64%
C[n+]1ccccc1SCC(=O)c1ccccc1 [Example 15, 1-Methyl-2-phenacylthiopyridinium bromide]	–	100%	showed activity	–	–	–	NS	–	–
C[n+]1ccccc1SCc1cccc(Cl)c1 [Example 11, 1-Methyl-2-(3-chlorobenzylthio(pyridinium chloride]	-70%	62%	–	-42%	–	–	–	inactive	–
CC(C)c1ccc(CSc2cccc[n+]2C)cc1 [Example 18, 2-((-4-Isopropylbenzyl)thio)-1-methylpyridinium chloride]	-39%	71%	–	–	60%	inactive	–	–	–
C[n+]1ccccc1SCc1ccc(Cl)cc1 [Example 3, 2-(4-Chlorobenzylthio)-1-methylpyridinium chloride]	-77%	83%	inactive	–	–	–	–	–	–
C[n+]1ccccc1SCc1c(Cl)cccc1Cl [Example 5, 2-(2,6-Dichlorobenzylthio)-1-methylpyridinium chloride]	-65%	70%	showed activity	-35%	–	–	–	–	–
